According to paper PMC8187479, “Sugar phosphate activation of the stress sensor eIF2B” (Nature Communications, 2021):

Target: T1, eIF2Bα (Homo sapiens, UniProt Q14232)
T1 construct: made in house; host or cells: E. coli BL21(DE3)
T1 sequence (Q14232 1-305): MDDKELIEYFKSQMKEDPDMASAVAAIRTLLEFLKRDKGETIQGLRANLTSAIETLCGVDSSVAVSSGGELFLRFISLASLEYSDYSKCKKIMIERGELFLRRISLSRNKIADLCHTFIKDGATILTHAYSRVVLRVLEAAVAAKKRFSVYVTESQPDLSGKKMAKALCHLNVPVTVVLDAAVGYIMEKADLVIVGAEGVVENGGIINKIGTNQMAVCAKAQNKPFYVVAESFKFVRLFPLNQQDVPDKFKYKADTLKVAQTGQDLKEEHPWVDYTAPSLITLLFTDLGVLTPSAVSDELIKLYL
Test: MIDAS (mass spectrometry integrated with equilibrium dialysis) metabolite binding screen
Conditions: MIDAS metabolite binding screen with eIF2Bα; sheet "eIF2Ba"
In short: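 Hits called at Storey q < 0.1 on z-scores of PCA-corrected log2 fold change between protein and metabolite chambers, quantified by FIA-MS in triplicate.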

Point of comparison: `CCCCCCCC(=O)SCCNC(=O)CCNC(=O)C(O)C(C)(C)COP(=O)(O)OP(=O)(O)OC[C@H]1O[C@@H](n2cnc3c(N)ncnc32)[C@H](O)[C@@H]1OP(=O)(O)O` (some centres unmarked) [Octanoyl coenzyme A], “log2(corrected fold change)” value 0.3691. Against it:
- O=C(O)C(COP(=O)(O)O)OP(=O)(O)O [2,3-Diphospho-D-glyceric acid] — lower, 0.003153
- O=C(O)/C=C(/CC(=O)O)C(=O)O [cis-Aconitic acid] — lower, 0.003317
- O=CC(=O)O [Glyoxylate] — lower, -0.02095
- O=C(O)Cc1cnc[nH]1 [4-Imidazoleacetic acid] — lower, 0.01796
- Nc1ncnc2c1ncn2[C@@H]1O[C@H](COP(=O)(O)OP(=O)(O)OP(=O)(O)O)[C@@H](O)[C@H]1O [Adenosine triphosphate] — lower, 0.05437
- O=C(O)CC[C@@H](O)C(=O)O [D-Hydroxyglutaric acid] — lower, -0.0058
- O=C(O)CCCC(=O)O [Glutaric acid] — lower, -0.03876
- OC[C@@H](O)[C@@H](O)[C@@H](O)CO [Adonitol] — lower, 0.006339
- CCCC(=O)SCCNC(=O)CCNC(=O)[C@H](O)C(C)(C)COP(=O)(O)OP(=O)(O)OC[C@H]1O[C@@H](n2cnc3c(N)ncnc32)[C@H](O)[C@@H]1OP(=O)(O)O [Butyryl coenzyme A] — lower, 0.07019
- O=C(O)CCCC(=O)C(=O)O [2-Oxoadipic acid] — lower, -0.03769
- N[C@@H](CSSC[C@H](N)C(=O)O)C(=O)O [L-Cystine] — lower, 0.04101
- O=C(O)C(O)CO (centres unmarked) [2,3-Dihydroxypropanoic acid] — lower, 0.03679
- CC(C)C[C@@H](O)C(=O)O [D-Leucic acid] — lower, -0.0302
- CCC(C)C(O)C(=O)O (centres unmarked) [2-Hydroxy-3-methylpentanoic acid] — lower, -0.0302
- OC[C@H]1O[C@@H](n2cnc3c(O)nc(O)nc32)[C@H](O)[C@@H]1O [Xanthosine] — lower, 0.0001312
- OC[C@H]1O[C@H](O[C@H]2O[C@H](CO)[C@@H](O)[C@H](O)[C@H]2O)[C@H](O)[C@@H](O)[C@@H]1O [D-Trehalose] — lower, -0.02052
- Cc1cc2nc3c(=O)[nH]c(=O)nc-3n(C[C@H](O)[C@H](O)[C@H](O)COP(=O)(O)OP(=O)(O)OC[C@H]3O[C@@H](n4cnc5c(N)ncnc54)[C@H](O)[C@@H]3O)c2cc1C [Flavin adenine dinucleotide] — lower, -0.0588
- OC[C@@H](O)C(O)[C@H](O)CO [D-Arabitol] — lower, 0.006339
- CC(=O)N[C@H]1C(O)O[C@H](COP(=O)(O)O)[C@@H](O)[C@@H]1O (stereo partly drawn) [N-Acetyl-D-glucosamine 6-phosphate] — lower, -0.009906
- O=C(CO)[C@@H](O)[C@H](O)CO [D-Xylulose] — lower, -0.0769
- N[C@@H](COP(=O)(O)O)C(=O)O [O-Phospho-L-serine] — lower, 0.01938
- O=C[C@H](O)[C@H](O)[C@H](O)CO [D-Ribose] — lower, -0.0769
- O=C(O)[C@@H](O)[C@H](O)[C@H](O)CO [D-Arabinonic acid] — lower, -0.01209
- O=C(CO)[C@@H](O)[C@H](O)[C@H](O)[C@H](O)COP(=O)(O)O [D-Sedoheptulose 7-phosphate] — lower, -0.01312
- O=C(O)CNC(=O)Cc1ccc(O)cc1 [4-Hydroxyphenylacetylglycine] — lower, -0.008576
- O=C(O)c1ccoc1 [3-Furoic acid] — lower, -0.01812
- O=C(O)c1cc(O)ccc1O [2,5-Dihydroxybenzoic acid] — lower, 0.05271
- Cc1ncc(C[n+]2csc(CCO)c2C)c(N)n1 [Thiamine] — lower, 0.0196
- Nc1ccn([C@H]2C[C@H](O)[C@@H](COP(=O)(O)OP(=O)(O)OP(=O)(O)O)O2)c(=O)n1 [Deoxycytidine triphosphate] — lower, -0.0001501
- CC(=O)N[C@@H]1C(O)O[C@H](CO)[C@@H](O)[C@@H]1O (stereo partly drawn) [N-Acetyl-D-mannosamine] — lower, 0.03658
- N[C@@H](CCCCNC(=O)CCCC[C@@H]1SC[C@@H]2NC(=O)N[C@@H]21)C(=O)O [Biocytin] — lower, -0.00281
- Cc1ncc(CO)c(C(=O)O)c1O [4-Pyridoxic acid] — lower, 0.06772
- O=C(CO)N[C@H]1[C@H]([C@H](O)[C@H](O)CO)OC(O)(C(=O)O)C[C@@H]1O (some centres unmarked) [N-Glycolylneuraminic acid] — lower, -0.02217
- C[N+](C)(C)CCOP(=O)(O)OP(=O)([O-])OC[C@H]1O[C@@H](n2ccc(N)nc2=O)[C@H](O)[C@@H]1O [Cytidine 5-diphosphocholine] — lower, -0.000615

Same assay, conditions: MIDAS screen, sheet eIF2Ba; metabolites screened in pools 1-4; p-value and q-value given

Point of comparison: `NCCCCCN` [Cadaverine], “log2(corrected fold change)” value 0.2219. Against it:
- O=C(O)CCCc1ccccc1 [4-Phenylbutanoic acid] — within 0.2 log units, 0.03839
- O=P(O)(O)O[C@H]1O[C@H](CO)[C@H](O)[C@H](O)[C@H]1O [D-Galactose 1-phosphate] — lower, -0.1344
- O=P(O)(O)OC1O[C@H](CO)[C@@H](O)[C@H](O)[C@@H]1O (some centres unmarked) [Mannose 1-phosphate] — lower, -0.1344
- CCC(=O)NCC(=O)O [Propionylglycine] — within 0.2 log units, 0.07527
- C[C@@H](O)CC(=O)O [(R)-3-Hydroxybutyric acid] — lower, -0.1099
- Nc1c(C(=O)O)c2nc3c(C(=O)O)cccc3oc-2cc1=O [Cinnabarinic Acid] — lower, -0.1918
- NCCOP(=O)(O)O [O-Phosphorylethanolamine] — within 0.2 log units, 0.1876
- CC(=O)O[C@H](CC(=O)[O-])C[N+](C)(C)C [O-Acetyl-L-carnitine] — lower, -0.03661
- Cc1cn([C@H]2C[C@H](O)[C@@H](CO)O2)c(=O)[nH]c1=O [Thymidine] — within 0.2 log units, 0.1162
- O=C1CCNC(=O)N1 [Dihydrouracil] — lower, -0.08721
- CCC(O)C(=O)O (centres unmarked) [2-Hydroxybutanoic acid] — within 0.2 log units, 0.07137
- COc1ccc2[nH]cc(CC(=O)O)c2c1 [5-Methoxy-3-indoleacetic acid] — lower, -0.03075
- CC(=O)N[C@@H](C)C(=O)O [N-Acetyl-L-alanine] — within 0.2 log units, 0.07527
- O=C[C@H](O)[C@H](O)[C@H](O)COP(=O)(O)O [D-Ribose 5-phosphate] — within 0.2 log units, 0.3189
- O=C[C@H](O)COP(=O)(O)O [D-Glyceraldehyde 3-phosphate] — within 0.2 log units, 0.09175
- CC(CCC(=O)O)C(=O)O (centres unmarked) [2-Methylglutaric acid] — lower, -0.09665
- Phosphatidylserine — within 0.2 log units, 0.1166
- O=C(CO)[C@@H](O)[C@@H](O)[C@H](O)COP(=O)(O)O [D-Tagatose 6-phosphate] — lower, -0.01162
- O=c1[nH]c(=O)c2[nH]c(=O)[nH]c2[nH]1 [Uric acid] — lower, -0.09817
- CC(=O)N[C@H]1C(O)O[C@H](CO)[C@H](O)[C@@H]1O (stereo partly drawn) [N-Acetyl-D-galactosamine] — within 0.2 log units, 0.3673
- O=C(O)C(=O)Cc1ccccc1 [Phenylpyruvate] — within 0.2 log units, 0.02641
- N[C@@H](CC(=O)O)C(=O)O [L-Aspartate] — within 0.2 log units, 0.03257
- O=C(O)C/C=C/CC(=O)O [Trans-beta-Hydromuconic acid] — within 0.2 log units, 0.04348
- CC(C)C(=O)NCC(=O)O [Isobutyrylglycine] — lower, -0.09012
- Nc1ncnc2c1ncn2[C@@H]1O[C@H](COP(=O)(O)OP(=O)(O)OP(=O)(O)OC[C@@H]2O[C@H](n3cnc4c(N)ncnc43)[C@@H](O)[C@H]2O)[C@@H](O)[C@H]1O [Diadenosine triphosphate] — lower, -0.1669
- NC(=O)NCCCC[C@H](N)C(=O)O [Homocitrulline] — within 0.2 log units, 0.1565
- Cc1cc2nc3c(=O)[nH]c(=O)nc-3n(C[C@H](O)[C@H](O)[C@H](O)CO)c2cc1C [Riboflavin] — within 0.2 log units, 0.3728
- C[N+](C)(C)CC(O)CC(=O)[O-] (centres unmarked) [Carnitine] — lower, -0.03799
- O=c1[nH]cnc2nc[nH]c12 [Hypoxanthine] — within 0.2 log units, 0.136
- CC(C)CC(=O)C(=O)O [4-Methyl-2-oxovaleric acid] — lower, -0.05419
- O=P(O)(O)OC[C@H]1OC(O)(CO)[C@@H](O)[C@@H]1O (stereo partly drawn) [D-Fructose 6-phosphate] — lower, -0.1344
- Cc1ncc(C[n+]2csc(CCOP(=O)(O)O)c2C)c(N)n1 [Thiamine monophosphate] — within 0.2 log units, 0.1425
